# Data reported in the supplement of paper PMC13380429.
# Tests used:
# Details in all cases: 72 h
# Caco-2 [1] = experiment: cell viability relative to DMSO; higher = less toxic
# Calu-3 [2] = experiment: as above
# HepG2 [3] = experiment: as above
# Vero E6 [4] = experiment: as above
# Caco-2 [5] = experiment: relative viability EC50 (midpoint between 100% and the lowest measured viability); higher = less toxic
# Calu-3 [6] = experiment: as above
# HepG2 [7] = experiment: as above
# Vero E6 [8] = experiment: as above
# Caco-2 [9] = experiment: drug sensitivity score (DSS) for viability; higher = more toxic; extreme values may be limits of the assay
# Calu-3 [10] = experiment: as above
# HepG2 [11] = experiment: as above
# Vero E6 [12] = experiment: as above
# U2OS [13] = experiment: cell viability relative to DMSO; higher = less toxic
# U2OS [14] = experiment: relative viability EC50 (midpoint between 100% and the lowest measured viability); higher = less toxic
# U2OS [15] = experiment: drug sensitivity score (DSS) for viability; higher = more toxic; extreme values may be limits of the assay
SMILES,cell viability (Caco-2 [1]; 1 nM) [%],cell viability (Caco-2 [1]; 10 nM) [%],cell viability (Caco-2 [1]; 100 nM) [%],cell viability (Caco-2 [1]; 1000 nM) [%],cell viability (Caco-2 [1]; 10000 nM) [%],cell viability (Calu-3 [2]; 1 nM) [%],cell viability (Calu-3 [2]; 10 nM) [%],cell viability (Calu-3 [2]; 100 nM) [%],cell viability (Calu-3 [2]; 1000 nM) [%],cell viability (Calu-3 [2]; 10000 nM) [%],cell viability (HepG2 [3]; 1 nM) [%],cell viability (HepG2 [3]; 10 nM) [%],cell viability (HepG2 [3]; 100 nM) [%],cell viability (HepG2 [3]; 1000 nM) [%],cell viability (HepG2 [3]; 10000 nM) [%],cell viability (Vero E6 [4]; 1 nM) [%],cell viability (Vero E6 [4]; 10 nM) [%],cell viability (Vero E6 [4]; 100 nM) [%],cell viability (Vero E6 [4]; 1000 nM) [%],cell viability (Vero E6 [4]; 10000 nM) [%],relative viability EC50 (Caco-2 [5]) [µM],relative viability EC50 (Calu-3 [6]) [µM],relative viability EC50 (HepG2 [7]) [µM],relative viability EC50 (Vero E6 [8]) [µM],drug sensitivity score (Caco-2 [9]),drug sensitivity score (Calu-3 [10]),drug sensitivity score (HepG2 [11]),drug sensitivity score (Vero E6 [12]),cell viability (U2OS [13]; 1 nM) [%],cell viability (U2OS [13]; 10 nM) [%],cell viability (U2OS [13]; 100 nM) [%],cell viability (U2OS [13]; 1000 nM) [%],cell viability (U2OS [13]; 10000 nM) [%],relative viability EC50 (U2OS [14]) [µM],drug sensitivity score (U2OS [15])
O=C(O)CCCN1CCC(O[C@@H](c2ccc(Cl)cc2)c2ccccn2)CC1 [bepotastine],91.3,92.1,99.4,93.4,107,97,106,94.2,93.8,113,98.7,113,99,102,113,93.2,98.3,90.2,95.8,105,> 10,> 10,> 10,> 10,0,0,0,0,,,,,,,
COc1cc(C(=O)NCCCCCC(=O)O)cc(OC)c1OC [capobenic-acid],110,111,96.7,80.2,93.5,96.3,94.9,94.5,104,98.6,,,,,,103,101,99,101,94.6,> 10,> 10,,> 10,3.1,0,,0,97,103,94.7,111,94,> 10,0
CC(=O)Nc1ccc(OC(C)=O)cc1 [diacetamate],91.8,103,94.7,101,111,99.1,99.7,99.7,101,84.9,114,98.5,110,101,105,96.1,96,94.3,84.8,101,> 10,> 10,> 10,> 10,0,0.2,0,0,,,,,,,
CCc1[nH]c(=O)[nH]c1C(=O)c1ccncc1 [piroximone],96.4,95.2,88.7,99.4,94.6,103,110,99.3,95.2,89.3,,,,,,99,94.6,96.8,93.3,94.6,> 10,> 10,,> 10,0,0,,0,93.5,103,94.6,102,94.1,> 10,0
CCCCCCCCCCCCCCCC[N+](C)(C)CCN(Cc1ccc(OC)cc1)c1ncccn1 [thonzonium],106,98.1,110,80.3,7.2,102,100,96.3,85.8,-0.1,94.4,101,93.8,103,24.4,96,97.8,94.6,97.5,85.6,1.69,2.04,3.41,> 10,8.3,7.9,3.9,0.4,,,,,,,
N#Cc1cc(-c2n[nH]c(-c3ccncc3)n2)ccn1 [topiroxostat],98.2,92.9,89.6,95.9,107,103,87.4,107,95.1,118,102,91.1,98.8,100,96.1,102,103,101,102,99.8,> 10,> 10,> 10,> 10,0,0,0,0,,,,,,,
CCn1c(=O)c(-c2cc[nH]n2)cc2c(C)nc(N)nc21 [voxtalisib],102,96.7,93.5,86.5,42.9,95,91.9,91,71.9,32.6,108,106,101,88.5,35.4,104,104,91.2,80.8,33.5,1.61,1.17,1.84,1.55,5.2,6.8,5.4,6.1,99.3,97.3,97.9,93.1,60.3,,3.1
